pIC50: −log10 of the molar value. Active and inactive are the calls of the source. No cut-off for these calls is given here.
Legend:
[1] = system: Radical scavenging activity; experiment: Antioxidant activity assessed as DPPH radical scavenging activity at 0.1 mM after 20 mins; assay type: functional
HCT-116 = experiment: Cytostatic activity against human HCT116 cells; assay type: functional, cell-based
[2] = system: Radical scavenging activity; experiment: Antioxidant activity assessed as DPPH radical scavenging activity at 0.1 mM after 60 mins; assay type: functional
[3] = system: Radical scavenging activity; experiment: Antioxidant activity assessed as DPPH radical scavenging activity at 0.05 mM after 60 mins; assay type: functional
SW-620 = experiment: Cytostatic activity against human SW620 cells; assay type: functional, cell-based
MCF7 [4] = experiment: Cytostatic activity against human MCF7 cells; assay type: functional, cell-based
MOLT-4 = experiment: Cytostatic activity against human MOLT4 cells; assay type: functional, cell-based
Glycine max = experiment: Inhibition of soybean lipoxygenase
[5] = system: Radical scavenging activity; experiment: Antioxidant activity assessed as DPPH radical scavenging activity at 0.05 mM after 20 mins; assay type: functional
[6] = Antioxidant activity assessed as inhibition of AAPH-induced lipid peroxidation at 0.1 mM; assay type: functional
NCI-H460 = experiment: Cytostatic activity against human H460 cells; assay type: functional, cell-based
[7] = system: Radical scavenging activity; experiment: Antioxidant activity assessed as DPPH radical scavenging activity; assay type: functional
MCF7 [8] = experiment: Antiproliferative activity against human MCF7 cells at 100 uM after 24 hrs; assay type: functional; details: MCF7, 24 h

| Structure (SMILES) | pIC50 (HCT-116) | pIC50 (SW-620) | pIC50 (MCF7 [4]) | pIC50 (MOLT-4) | INH (Glycine max) [µM] | pIC50 (NCI-H460) | inhibition (Glycine max) | IC50 [6] | Activity [1] | Activity [2] [%] | Activity [3] | Activity [5] | Inhibition [6] [%] | Activity [7] | inhibition at 100 µM (MCF7 [8]) [%] |
| --- | --- | --- | --- | --- | --- | --- | --- | --- | --- | --- | --- | --- | --- | --- | --- |
| Cc1c(C)c2c(c(C)c1O)CCC(C)(C(=O)O)O2 (stereo not given) [TROLOX] | – | – | – | – | – | – | – | – | – | – | – | – | 63 | – | – |
| O=C(O)/C=C/c1ccc(O)c(O)c1 | – | – | – | – | 600 | – | – | – | – | – | – | – | – | – | – |
| COc1cc(NC(C)CCCNC(=O)NOCc2ccccc2)c2ncccc2c1 (stereo not given) | 4.85 | 4.70 | 5.05 | 4.92 | 230 | 4.68 | – | – | 11.4% | 38.1 | inactive | inactive | 82 | Dose-dependent effect | – |
| CC(Cc1ccc(O)c(O)c1)C(C)Cc1ccc(O)c(O)c1 (stereo not given) | – | – | – | – | – | – | – | – | 81% | 83 | – | – | – | – | – |
| COc1cc(NC(C)CCCNC(=O)N(CCO)CCO)c2ncccc2c1 (stereo not given) | < 4.00 | < 4.00 | 4.44 | < 4.00 | 86 | < 4.00 | – | – | inactive | 11.9 | 7.4% | 20.7% | 85 | Dose-dependent effect | – |
| COc1cc(NC(C)CCCNC(=O)NC(CO)(CO)CO)c2ncccc2c1 (stereo not given) | < 4.00 | < 4.00 | 4.62 | < 4.00 | – | < 4.00 | inactive | – | 28.6% | 40.5 | 22.3% | 24.4% | 86 | Dose-dependent effect | – |
| COc1cc(NC(C)CCCNC(=O)NCCO)c2ncccc2c1 (stereo not given) | < 4.00 | < 4.00 | 4.60 | < 4.00 | 315 | < 4.00 | – | – | 60.7% | 51.2 | 10.6% | 3.7% | 81 | Dose-dependent effect | – |
| COc1cc(NC(C)CCCNC(=O)N(C2CCCCC2)C2CCCCC2)c2ncccc2c1 (stereo not given) | – | – | – | – | 320 | – | – | – | 42.9% | 42.9 | 28.8% | 3.9% | 96 | Dose-dependent effect | – |
| COc1cc(NC(C)CCCN)c2ncccc2c1 (stereo not given) [PRIMAQUINE] | 4.70 | ≤ 4.00 | 4.55 | – | 74 | 4.52 | – | – | 18.1% | 21.9 | 19% | 17.2% | 45 | – | 20 |
| COc1cc(NC(C)CCCNC(=O)n2nnc3ccccc32)c2ncccc2c1 (stereo not given) [PRIMAQUINE BENZOTRIAZOLIDE] | – | – | – | – | 260 | – | – | Not Active | 16.7% | 73.8 | 20% | 18.4% | – | Dose-dependent effect | – |

Now from value to compound, other results behind:

| pIC50 (HCT-116) | pIC50 (SW-620) | pIC50 (MCF7 [4]) | pIC50 (MOLT-4) | INH (Glycine max) [µM] | pIC50 (NCI-H460) | inhibition (Glycine max) | IC50 [6] | Structure (SMILES) | Activity [1] | Activity [2] [%] | Activity [3] | Activity [5] | Inhibition [6] [%] | Activity [7] | inhibition at 100 µM (MCF7 [8]) [%] |
| --- | --- | --- | --- | --- | --- | --- | --- | --- | --- | --- | --- | --- | --- | --- | --- |
| 4.54 | 6.70 | 4.36 | 4.21 | 310 | 5.70 | – | – | COc1cc(NC(C)CCCNC(=O)NCCCCCO)c2ncccc2c1 (stereo not given) | 34.5% | 46.4 | inactive | inactive | 63 | Dose-dependent effect | – |
| – | – | – | – | – | – | inactive | – | COc1cc(NC(C)CCCNC(=O)NC2CCCCC2)c2ncccc2c1 (stereo not given) | 27.4% | 25 | 16.3% | 28.9% | 99 | Dose-dependent effect | – |
| 4.82 | 4.77 | 4.51 | 5.00 | 62 | 4.74 | – | – | COc1cc(NC(C)CCCNC(=O)NCCNC(=O)NCCCC(C)Nc2cc(OC)cc3cccnc23)c2ncccc2c1 (stereo not given) | 35.7% | 40.5 | 27.6% | 34.2% | 99 | Dose-dependent effect | – |
| 3.65 | < 4.00 | < 4.00 | < 4.00 | – | < 4.00 | – | – | NC(=O)NO [HYDROXYUREA] | – | – | – | – | – | – | – |
| < 4.00 | < 4.00 | < 4.00 | ≤ 4.00 | 72 | < 4.00 | – | – | COc1cc(N2C(=O)NCCCC2C)c2ncccc2c1 (stereo not given) | 48.8% | 57.1 | 40% | 30.5% | 88 | Dose-dependent effect | – |
| < 4.00 | < 4.00 | < 4.00 | < 4.00 | – | < 4.00 | inactive | – | COC(=O)NCCCC(C)Nc1cc(OC)cc2cccnc12 (stereo not given) | 75% | 48.8 | 13.8% | 24.4% | 83 | Dose-dependent effect | – |
| 4.55 | 4.35 | 4.59 | 4.47 | – | 4.42 | inactive | – | CCOC(=O)NCCCC(C)Nc1cc(OC)cc2cccnc12 (stereo not given) | inactive | 31 | 8.5% | 10.8% | 87 | Dose-dependent effect | – |
| 4.24 | 4.46 | 4.36 | < 4.00 | 83 | < 4.00 | – | – | COc1cc(NC(C)CCCNC(=O)NO)c2ncccc2c1 (stereo not given) | 88.1% | 84.5 | 60.6% | 2.2% | 69 | Dose-dependent effect | – |
| < 4.00 | < 4.00 | 4.51 | < 4.00 | 230 | < 4.00 | – | – | COc1cc(NC(C)CCCNC(=O)NCCCO)c2ncccc2c1 (stereo not given) | 28.6% | 33.3 | 27.7% | 12.2% | 56 | Dose-dependent effect | – |
| – | – | – | – | 220 | – | – | – | COc1cc(NC(C)CCCNC(=O)NC2CCCC2)c2ncccc2c1 (stereo not given) | 26.2% | 19 | 21.3% | 15.8% | 99 | Dose-dependent effect | – |

— ChEMBL document CHEMBL1153070, “Urea and carbamate derivatives of primaquine: synthesis, cytostatic and antioxidant activities” (Bioorg Med Chem, 2009)
